From PubChem BioAssay AID463109 (Sanford-Burnham Center for Chemical Genomics, 2010)
The source made the active and inactive calls.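 How the source made its calls: active means mean IC50 below 10 µM; inactive means the rest.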

target: Apelin receptor (Homo sapiens) (UniProt P35414); test: APJ antagonists, beta-arrestin recruitment, SAR follow-up, cell-based, luminescence (AID 463109); conditions: CHO-K1 AGTRL-1 PathHunter beta-arrestin luminescence
Sequence (P35414 whole entry, looked up): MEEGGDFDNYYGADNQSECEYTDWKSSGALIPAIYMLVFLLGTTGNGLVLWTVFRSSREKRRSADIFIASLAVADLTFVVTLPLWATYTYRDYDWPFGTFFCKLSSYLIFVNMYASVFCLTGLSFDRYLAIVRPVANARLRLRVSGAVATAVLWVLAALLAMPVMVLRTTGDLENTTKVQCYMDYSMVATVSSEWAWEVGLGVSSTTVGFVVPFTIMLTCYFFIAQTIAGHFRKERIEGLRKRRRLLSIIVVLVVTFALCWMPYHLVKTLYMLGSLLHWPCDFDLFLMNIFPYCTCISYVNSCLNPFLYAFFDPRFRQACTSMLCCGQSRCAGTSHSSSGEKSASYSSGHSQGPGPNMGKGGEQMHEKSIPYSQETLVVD

| Compound | IC50 |
| --- | --- |
| Cc1ccc(N=C2C(=O)Nc3ccccc32)cc1 | inactive |
| Cc1cc(C)nc(NNS(=O)(=O)c2ccc(F)c(Cl)c2)n1 | 2.62 µM |
| COc1ccccc1NCC(=O)c1ccc(Cl)cc1 | 3.46 µM |
| CC1(C)CC2(CC(c3ccccc3F)c3cc(Cl)c(O)cc3O2)NC(=S)N1 (stereo not given) | 5.71 µM |
| O=C(COC(=O)c1ccncc1)c1ccc(Cl)c(Cl)c1 | inactive |
| O=c1cc(CSc2ccc(Cl)cc2)nc(-c2ccccn2)[nH]1 | inactive |
| Cc1ccc(C)c(NCC(=O)c2ccc(Cl)cc2)c1 | 0.886 µM |
| O=C(CNS(=O)(=O)c1ccccc1)OCC(=O)c1cccc([N+](=O)[O-])c1 | inactive |
| O=C(CNC(=O)c1ccco1)NCC(=O)OCC(=O)c1ccc(Cl)c([N+](=O)[O-])c1 | 5.42 µM |
| CC(C)(C)c1ccc(-n2nc(C#N)c(Cl)cc2=O)cc1 | 3.53 µM |
| O=C1Nc2ccccc2C1=Nc1ccc(Br)cc1 | 5.52 µM |
| FC(F)(F)c1cccc(Sc2nc(-c3ccccc3)nnc2C(F)(F)F)c1 | inactive |
| O=C(COC(=O)c1cnccn1)c1ccc(Cl)c([N+](=O)[O-])c1 | 8.31 µM |
| COc1cccc(/C=C/c2ccc3cccc(O)c3n2)c1OC | inactive |
| O=S(=O)(NN=Cc1ccc(-c2ccccc2Cl)o1)c1ccccc1 | inactive |
| O=C(Nc1nc2ccc(F)cc2s1)c1ccccn1 | inactive |
| NC(=O)c1ccccc1NCC(=O)c1ccc(Cl)cc1 | 2.89 µM |
| COc1ccc(N=C2C(=O)Nc3ccc(C)c(Br)c32)cc1 | > 79 µM (inactive) |
| Cn1c(=O)c(C(=S)NC(=O)C2CC2)c(N)n(Cc2ccccc2)c1=O | inactive |
| CSc1cccc(N=C2C(=O)Nc3ccccc32)c1 | 3.82 µM |
| CC(C)N1CCc2c(sc(NC(=O)c3cc(-c4cccs4)nc4ccccc34)c2C(N)=O)C1 | inactive |
| Cc1ccc(C(=O)CNc2cc(C)ccc2C)cc1 | 2.31 µM |
| O=C(CNc1cccc(Cl)c1)c1ccc(Br)cc1 | > 79 µM (inactive) |
| Cc1cccc2c1NC(=O)C2=Nc1ccc(Cl)cc1 | 8.16 µM |
| Oc1cccc2ccc(/C=C/c3ccccc3Cl)nc12 | inactive |
| CC(C)Cc1nc2oc3c(Cl)ncnc3c2c2c1CCC2 | inactive |
| CC(=O)Nc1ccc(NC(=O)CCC(=O)OCC(=O)c2ccc(C)c([N+](=O)[O-])c2)cc1 | inactive |
| Cc1ccc(N=C2C(=O)Nc3c(C)cccc32)cc1 | inactive |

| Compound | IC50 |
| --- | --- |
| CC(C)OC(=O)CN1C(=O)C(=O)c2ccccc21 | 4.14 µM |
| Cc1ccc(C(=O)CNc2ccccc2)cc1 | 2.81 µM |
| O=C1Nc2ccccc2C1=Nc1ccc(F)cc1 | 5.95 µM |
| O=C(Nc1nc2c(F)cc(F)cc2s1)c1ccccn1 | 7.55 µM |
| Cc1cc(C)nc(NNS(=O)(=O)c2ccc(Cl)cc2)n1 | 8.98 µM |
| Cc1ccc(OCC(=O)OCC(=O)c2cccc([N+](=O)[O-])c2)cc1C | inactive |
| Cc1ccc(N=C2C(=O)Nc3ccc(Br)cc32)cc1 | 4.73 µM |
| O=c1c2cc(Br)ccc2[nH]c(=S)n1Cc1ccccn1 | inactive |
| COc1ccc(S(=O)(=O)NNc2nc(C)cc(C)n2)cc1[N+](=O)[O-] | inactive |
| CCC[N+](CC#Cc1ccccc1)(CCC)CC(=O)c1ccc(Cl)cc1 | inactive |
| COc1ccc(S(=O)(=O)NNc2nc(C)cc(C)n2)cc1Br | inactive |
| CNC(=O)c1nnsc1S(=O)(=O)c1ccc(Cl)cc1 | inactive |
| CCN(CC)CC(=O)c1ccc(-c2ccccc2)cc1 | inactive |
| COc1ccc(C(=O)CNc2cccc(F)c2)cc1 | inactive |
| CCOc1ccc(N=C2C(=O)Nc3ccc(C)c(Br)c32)cc1 | 6.58 µM |
| CCC1CCCCN1CC(=O)c1ccc(OC(F)F)cc1 (stereo not given) | inactive |
| Cc1cc(C)nc(NNS(=O)(=O)c2c(F)cc(F)cc2Br)n1 | 2.9 µM |
| CCOC(=O)C1=NNC(C(=O)c2ccc(Cl)cc2)C1c1ccccc1 (stereo not given) | inactive |
| CC(C(=O)OCC(=O)c1cccc([N+](=O)[O-])c1)N1C(=O)C2C3C=CC(C3)C2C1=O (stereo not given) | inactive |
| CC(=O)c1ccc(N=C2C(=O)Nc3ccccc32)cc1 | 1.46 µM |
| S=C1NCCc2ccccc2C1c1ccccc1Cl (stereo not given) | inactive |
| Cc1cccc(N=C2C(=O)Nc3c(Cl)cccc32)c1 | 2.3 µM |
| Cc1ccc2nc(C)cc(C(=O)OCC(=O)c3ccc(Cl)c([N+](=O)[O-])c3)c2c1 | inactive |
| COC(=O)C1NN=C(C(=O)c2ccc(Cl)cc2)C1c1ccc(OC)cc1 (stereo not given) | inactive |
| O=C(CNc1ccc(Br)cc1)c1ccccc1 | 2.26 µM |
| O=C(CNc1ccccc1C(=O)O)c1ccccc1 | 2.92 µM |
| O=C(COC(=O)c1cccnc1)c1ccc(Cl)c(Cl)c1 | inactive |
